Laboratory results reported in US20230055237A1, “COMPOUNDS AND METHODS FOR THE TREATMENT OF CYSTIC FIBROSIS” (Flatley Discovery Lab, LLC, priority 2019, published 2023).

Target: T1, CFTR (Homo sapiens, UniProt P13569, DEL508-508)
T1 construct: Primary CF airway epithelial cells were obtained from the UNC Cystic Fibrosis Tissue Procurement and Cell Culture Core; host or cells: primary CF airway epithelial cells, differentiated at the air-liquid interface
Assay: Equivalent current assay in primary CF airway epithelial cells (NAUC, combination with 1st site corrector FDL169 or VX-809)
Type: cell-based
Conditions: 37° C., 24 h

[1] = test compound 1 μM in combination with 1st site corrector VX-809 (3 μM)
[2] = test compound 3 μM in combination with 1st site corrector VX-809 (3 μM)
[3] = test compound 10 μM in combination with 1st site corrector VX-809 (3 μM)

T1 sequence (P13569 with tags, fused parts or gaps DEL508-508): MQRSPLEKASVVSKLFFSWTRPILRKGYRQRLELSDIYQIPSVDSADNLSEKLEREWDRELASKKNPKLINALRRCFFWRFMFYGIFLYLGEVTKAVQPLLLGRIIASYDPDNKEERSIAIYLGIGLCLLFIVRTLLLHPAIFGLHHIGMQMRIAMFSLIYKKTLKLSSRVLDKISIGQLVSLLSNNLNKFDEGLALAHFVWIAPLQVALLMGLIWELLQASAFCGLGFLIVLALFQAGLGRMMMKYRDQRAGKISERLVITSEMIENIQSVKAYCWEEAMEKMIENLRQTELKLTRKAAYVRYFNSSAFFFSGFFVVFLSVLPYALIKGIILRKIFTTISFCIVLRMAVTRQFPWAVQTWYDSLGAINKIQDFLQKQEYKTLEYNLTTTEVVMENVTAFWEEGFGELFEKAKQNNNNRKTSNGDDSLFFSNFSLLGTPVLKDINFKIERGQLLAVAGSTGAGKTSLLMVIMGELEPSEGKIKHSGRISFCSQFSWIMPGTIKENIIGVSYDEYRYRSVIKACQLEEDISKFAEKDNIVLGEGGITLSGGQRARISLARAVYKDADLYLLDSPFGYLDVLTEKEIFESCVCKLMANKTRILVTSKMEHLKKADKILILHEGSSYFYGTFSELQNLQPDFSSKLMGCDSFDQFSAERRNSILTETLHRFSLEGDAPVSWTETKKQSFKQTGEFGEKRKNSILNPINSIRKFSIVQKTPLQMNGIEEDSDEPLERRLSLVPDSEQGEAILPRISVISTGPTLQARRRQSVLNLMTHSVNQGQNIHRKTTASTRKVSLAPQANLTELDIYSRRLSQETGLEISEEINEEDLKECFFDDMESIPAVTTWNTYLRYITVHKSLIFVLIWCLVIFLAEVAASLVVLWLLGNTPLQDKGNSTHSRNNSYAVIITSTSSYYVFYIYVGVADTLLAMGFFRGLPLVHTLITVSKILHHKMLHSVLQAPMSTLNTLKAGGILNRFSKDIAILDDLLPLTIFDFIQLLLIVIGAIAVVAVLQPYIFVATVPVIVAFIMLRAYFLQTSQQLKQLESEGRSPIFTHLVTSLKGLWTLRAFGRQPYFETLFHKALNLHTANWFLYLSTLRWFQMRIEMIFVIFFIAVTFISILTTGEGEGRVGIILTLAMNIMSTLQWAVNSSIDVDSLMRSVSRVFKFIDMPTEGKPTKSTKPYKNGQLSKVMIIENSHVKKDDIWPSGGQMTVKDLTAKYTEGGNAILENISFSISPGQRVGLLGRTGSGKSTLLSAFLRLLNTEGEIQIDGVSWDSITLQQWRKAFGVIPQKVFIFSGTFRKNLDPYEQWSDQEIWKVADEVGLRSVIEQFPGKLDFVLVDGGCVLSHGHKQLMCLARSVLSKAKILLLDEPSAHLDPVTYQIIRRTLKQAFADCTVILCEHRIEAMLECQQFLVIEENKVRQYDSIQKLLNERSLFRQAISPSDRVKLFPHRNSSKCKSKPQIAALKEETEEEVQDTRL

| SMILES | Nauc @ 1 μM (test compound 1 μM in combination with 1st site corrector FDL169 (3 μM)) | Nauc @ 3 μM (test compound 3 μM in combination with 1st site corrector FDL169 (3 μM)) | Nauc @ 10 μM (test compound 10 μM in combination with 1st site corrector FDL169 (3 μM)) | Nauc @ 1 μM [1] | Nauc @ 3 μM [2] | Nauc @ 10 μM [3] |
| --- | --- | --- | --- | --- | --- | --- |
| O=C(O)[C@H]1[C@@H](C(=O)N(CC2CC2)c2cc(Cl)cc(Cl)c2)[C@H]2CC(F)(F)CN2[C@]12C(=O)N(C1CC1)c1c(Cl)cc(Cl)cc12 [Example 208, (1′R,2′S,3R,7a′R)-5,7-dichloro-1-cyclopropyl-1′-((cyclopropylmethyl)(3,5-dichlorophenyl)carbamoyl)-6′,6′-difluoro-2-oxo-1′,2′,5′,6′,7′,7a′-hexahydrospiro[indoline-3.3′-pyrrolizine]-2′-carboxylic acid] | ++ (NAUC “++” refers to an observed NAUC 170-140% of positive control) | ++ (NAUC “++” refers to an observed NAUC 170-140% of positive control) | + (NAUC “+” refers to an observed NAUC <140% of positive control) |  |  |  |
| CON(C)C(=O)[C@H]1[C@@H](C(=O)Nc2cc(Cl)cc(Cl)c2)[C@H]2CC(F)(F)CN2[C@]12C(=O)Nc1c(Cl)cc(Cl)cc12 [Example 227, (1′R,2′S,3R,7a′R)-5,7-dichloro-N1′-(3,5-dichlorophenyl)-6′,6′-difluoro-N2′-methoxy-N2′-methyl-2-oxo-1′,2′,5′,6′,7′,7a′-hexahydrospiro [indoline-3,3′-pyrrolizine]-1′,2′-dicarboxamide] |  |  |  | + (NAUC “+” refers to an observed NAUC <140% of positive control) | ++ (NAUC “++” refers to an observed NAUC 170-140% of positive control) | ++ (NAUC “++” refers to an observed NAUC 170-140% of positive control) |
| NC(=O)[C@H]1[C@@H](C(=O)Nc2cc(Cl)cc(Cl)c2)[C@H]2CC(F)(F)CN2[C@]12C(=O)Nc1c(Cl)cc(Cl)cc12 [Example 228, (1′R,2′S,3R,7a′R)-5,7-dichloro-N1′-(3,5-dichlorophenyl)-6′,6′-difluoro-2-oxo-1′,2′,5′,6′,7′,7a′-hexahydrospiro[indoline-3,3′-pyrrolizine]-1′,2′-dicarboxamide] |  |  |  | + (NAUC “+” refers to an observed NAUC <140% of positive control) | + (NAUC “+” refers to an observed NAUC <140% of positive control) | + (NAUC “+” refers to an observed NAUC <140% of positive control) |
| CONC(=O)[C@H]1[C@@H](C(=O)Nc2cc(Cl)cc(Cl)c2)[C@H]2CCCN2C12C(=O)Nc1c(Cl)cc(Cl)cc12 (stereo partly drawn) [Example 233, (1′R,2′S,7a′R)-5,7-dichloro-N1′-(3,5-dichlorophenyl)-N2′-methoxy-2-oxo-1′,2′,5′,6′,7′,7a′-hexahydrospiro[indoline-3,3′-pyrrolizine]-1,2′-dicarboxamide] |  |  |  | ++ (NAUC “++” refers to an observed NAUC 170-140% of positive control) | +++ (NAUC “+++” refers to an observed NAUC>170% of positive control) | +++ (NAUC “+++” refers to an observed NAUC>170% of positive control) |
| NNC(=O)[C@H]1[C@@H](C(=O)Nc2cc(Cl)cc(Cl)c2)[C@H]2CCCN2C12C(=O)Nc1c(Cl)cc(Cl)cc12 (stereo partly drawn) [Example 236, (1′R,2′S,7a′R)-5,7-dichloro-N-(3,5-dichlorophenyl)-2′-(hydrazinecarbonyl)-2-oxo-1′,2′,5′,6′,7′,7a′-hexahydrospiro[indoline-3,3′-pyrrolizine]-1′-carboxamide] |  |  |  | + (NAUC “+” refers to an observed NAUC <140% of positive control) | ++ (NAUC “++” refers to an observed NAUC 170-140% of positive control) | +++ (NAUC “+++” refers to an observed NAUC>170% of positive control) |
| C[C@]1(O)C[C@@H]2[C@H](C(=O)Nc3cc(Cl)cc(Cl)c3)[C@H](C(N)=O)[C@@]3(C(=O)Nc4c(Cl)cc(Cl)cc43)N2C1 [Example 244, (1′R,2′S,6′S,7a′R)-5,7-dichloro-N1′-(3,5-dichlorophenyl)-6′-hydroxy-6′-methyl-2-oxo-1′,2′,5′,6′,7′,7a′-hexahydrospiro[indoline-3,3′-pyrrolizine]-1,2′-dicarboxamide] |  |  |  | + (NAUC “+” refers to an observed NAUC <140% of positive control) | + (NAUC “+” refers to an observed NAUC <140% of positive control) | + (NAUC “+” refers to an observed NAUC <140% of positive control) |
| C[C@]1(O)C[C@@H]2[C@H](C(=O)Nc3cc(Cl)cc(Cl)c3)[C@H](C(=O)NO)[C@@]3(C(=O)Nc4c(Cl)cc(Cl)cc43)N2C1 [Example 245, (1′R,2′S,6′S,7a′R)-5,7-dichloro-N1′-(3,5-dichlorophenyl)-N2′,6′-dihydroxy-6′-methyl-2-oxo-1′,2′,5′,6′,7′,7a′-hexahydrospiro[indoline-3,3′-pyrrolizine]-1′,2′-dicarboxamide] |  |  |  | + (NAUC “+” refers to an observed NAUC <140% of positive control) | ++ (NAUC “++” refers to an observed NAUC 170-140% of positive control) | +++ (NAUC “+++” refers to an observed NAUC>170% of positive control) |
| CONC(=O)[C@H]1[C@@H](C(=O)Nc2cc(Cl)cc(Cl)c2)[C@H]2C[C@](C)(O)CN2[C@]12C(=O)Nc1c(Cl)cc(Cl)cc12 [Example 246, (1′R,2′S,6′S,7a′R)-5,7-dichloro-N1′-(3,5-dichlorophenyl)-6′-hydroxy-N2′-methoxy-6′-methyl-2-oxo-1′,2′,5′,6′,7′,7a′-hexahydrospiro[indoline-3,3′-pyrrolizine]-1′,2′-dicarboxamide] |  |  |  | + (NAUC “+” refers to an observed NAUC <140% of positive control) | + (NAUC “+” refers to an observed NAUC <140% of positive control) | +++ (NAUC “+++” refers to an observed NAUC>170% of positive control) |
| C[C@]1(O)CC2C(C(=O)Nc3cc(Cl)cc(Cl)c3)C(C(=O)NS(C)(=O)=O)C3(C(=O)Nc4c(Cl)cc(Cl)cc43)N2C1 (stereo partly drawn) [Example 247, (6′S)-5,7-dichloro-N1′-(3,5-dichlorophenyl)-6′-hydroxy-6′-methyl-N2′-(methylsulfonyl)-2-oxo-1′,2′,5′,6′,7′,7a′-hexahydrospiro[indoline-3,3′-pyrrolizine]-1′,2′-dicarboxamide] |  |  |  | + (NAUC “+” refers to an observed NAUC <140% of positive control) | ++ (NAUC “++” refers to an observed NAUC 170-140% of positive control) | +++ (NAUC “+++” refers to an observed NAUC>170% of positive control) |
| CN(C)S(=O)(=O)NC(=O)C1C(C(=O)Nc2cc(Cl)cc(Cl)c2)C2C[C@](C)(O)CN2C12C(=O)Nc1c(Cl)cc(Cl)cc12 (stereo partly drawn) [Example 248, (6′S)-5,7-dichloro-N1′-(3,5-dichlorophenyl)-N2′-(N,N-dimethylsulfamoyl)-6′-hydroxy-6′-methyl-2-oxo-1′,2′,5′,6′,7′,7a′-hexahydrospiro[indoline-3,3′-pyrrolizine]-1,2′-dicarboxamide] |  |  |  | + (NAUC “+” refers to an observed NAUC <140% of positive control) | +++ (NAUC “+++” refers to an observed NAUC>170% of positive control) | +++ (NAUC “+++” refers to an observed NAUC>170% of positive control) |
